# Measured values as given in US6737383B1, “Herbicidal oxadiazolidines” (priority 1999, dated 2004).
# What was measured:
# cocklebur = assay: Test B pre/postemergence cocklebur; format: in vivo, Xanthium strumarium
# Procedure, shortened: (§1)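 Response is a visual 0-to-10 score relative to untreated plants, where 0 means no effect and 10 means complete control, taken twelve to sixteen days after application. Treatments went onto soil at planting and onto foliage of 1- to 4-leaf plants, using a surfactant-containing non-phytotoxic solvent.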
# corn = assay: Test B pre/postemergence corn; format: in vivo, Zea mays
# Procedure, shortened: as §1
# crabgrass = assay: Test B pre/postemergence crabgrass; format: in vivo, Digitaria sanguinalis
# Procedure, shortened: as §1
# giant foxtail = assay: Test B pre/postemergence giant foxtail; format: in vivo, Setaria faberii
# Procedure, shortened: as §1
# morningglory = assay: Test B pre/postemergence morningglory; format: in vivo, Ipomoea hederacea
# Procedure, shortened: as §1
# pigweed = assay: Test B pre/postemergence pigweed; format: in vivo, Amaranthus retroflexus
# Procedure, shortened: as §1
# rape = assay: Test B pre/postemergence rape; format: in vivo, Brassica napus
# Procedure, shortened: as §1
# soybean = assay: Test B pre/postemergence soybean; format: in vivo, Glycine max
# Procedure, shortened: as §1
# sugar beet = assay: Test B pre/postemergence sugar beet; format: in vivo, Beta vulgaris
# Procedure, shortened: as §1
# velvetleaf = assay: Test B pre/postemergence velvetleaf; format: in vivo, Abutilon theophrasti
# Procedure, shortened: as §1
# wheat = assay: Test B pre/postemergence wheat; format: in vivo, Triticum aestivum
# Procedure, shortened: as §1
# wild oat = assay: Test B pre/postemergence wild oat; format: in vivo, Avena fatua
# Procedure, shortened: as §1
# purple nutsedge = assay: Test B pre/postemergence purple nutsedge; format: in vivo, Cyperus rotundus
# Procedure, shortened: as §1
# rice = assay: Test B flood test rice; format: in vivo, Oryza sativa
# Procedure, shortened: (§2)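 Read-out is a visual response score from 0 (no effect) to 10 (complete control), assigned by comparison with untreated controls. Treatment was applied at the 2-leaf stage, and plants stayed in the greenhouse for twelve to sixteen days before scoring.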
# duck salad = assay: Test B flood test duck salad; format: in vivo, Heteranthera limosa
# Procedure, shortened: as §2
# bamyardgrass = assay: Test B flood test barnyardgrass; format: in vivo, Echinochloa crus-galli
# Procedure, shortened: as §2
# [1] = Preemergence, Rate 62 g/ha, scale of 0 to 10 where 0 is no effect and 10 is complete control
# [2] = Preemergence, Rate 125 g/ha, 0 is no effect, 10 is complete control
# [3] = Preemergence, Rate 250 g/ha, scale 0 to 10, 0 is no effect, 10 is complete control
# [4] = Preemergence, Rate 500 g/ha, scale of 0 to 10 where 0 is no effect and 10 is complete control
# [5] = Rate 62 g/ha, Postemergence, scale of 0 to 10 where 0 is no effect and 10 is complete control
# [6] = Rate 125 g/ha, Postemergence, scale 0 to 10
# [7] = Rate 500 g/ha, Postemergence, scale 0 to 10
# [8] = Rate 62 g/ha, headed Pre-emergence (flood test species), scale 0 to 10 (0 no effect, 10 complete control)
# [9] = Rate 125 g/ha, Pre-emergence, flood test species, scale 0 to 10 where 0 is no effect and 10 is complete control
# [10] = Rate 250 g/ha, Pre-emergence, flood-test species, scale 0 to 10, 0 is no effect, 10 is complete control
# [11] = Rate 500 g/ha, headed Pre-emergence (flood test species), scale 0 to 10 (0 no effect, 10 complete control)
smiles,measurement,setting,value
C=CCn1c(=O)on(C(=O)N(c2ccc(F)cc2)C2CCC2)c1=O [Compound 194],Cocklebur plant response rating,cocklebur; [1],0
same,Cocklebur plant response rating (0 to 10 scale),cocklebur; [2],0
same,Cocklebur plant response rating,cocklebur; [3],0
same,"Plant response rating, Cocklebur",cocklebur; [4],0
same,Cocklebur plant response rating,cocklebur; [5],0
same,Cocklebur plant response rating,cocklebur; [6],1
same,"Plant response rating (0 to 10; 0 is no effect, 10 is complete control), Cocklebur","cocklebur; Rate 250 g/ha, Postemergence",2
same,Cocklebur plant response rating,cocklebur; [7],2
same,Corn plant response rating,corn; [1],0
same,Corn plant response rating (0 to 10 scale),corn; [2],0
same,Corn plant response rating,corn; [3],0
same,"Plant response rating, Corn",corn; [4],0
same,Corn plant response rating,corn; [5],0
same,Corn plant response rating,corn; [6],0
same,"Plant response rating (0 to 10; 0 is no effect, 10 is complete control), Corn","corn; Rate 250 g/ha, Postemergence",0
same,Corn plant response rating,corn; [7],0
same,Crabgrass plant response rating,crabgrass; [1],4
same,Crabgrass plant response rating (0 to 10 scale),crabgrass; [2],9
same,Crabgrass plant response rating,crabgrass; [3],9
same,Crabgrass plant response rating,crabgrass; [5],0
same,Crabgrass plant response rating,crabgrass; [6],0
same,"Plant response rating (0 to 10; 0 is no effect, 10 is complete control), Crabgrass","crabgrass; Rate 250 g/ha, Postemergence",0
same,Crabgrass plant response rating,crabgrass; [7],2
same,Giant foxtail plant response rating,giant foxtail; [1],3
same,Giant foxtail plant response rating (0 to 10 scale),giant foxtail; [2],8
same,Giant foxtail plant response rating,giant foxtail; [3],8
same,"Plant response rating, Giant foxtail",giant foxtail; [4],9
same,Giant foxtail plant response rating,giant foxtail; [5],0
same,Giant foxtail plant response rating,giant foxtail; [6],1
same,"Plant response rating (0 to 10; 0 is no effect, 10 is complete control), Giant foxtail","giant foxtail; Rate 250 g/ha, Postemergence",2
same,Giant foxtail plant response rating,giant foxtail; [7],2
same,Morningglory plant response rating,morningglory; [1],0
same,Morningglory plant response rating (0 to 10 scale),morningglory; [2],0
same,Morningglory plant response rating,morningglory; [3],0
same,"Plant response rating, Morningglory",morningglory; [4],0
same,Morningglory plant response rating,morningglory; [5],0
same,Morningglory plant response rating,morningglory; [6],0
same,"Plant response rating (0 to 10; 0 is no effect, 10 is complete control), Morningglory","morningglory; Rate 250 g/ha, Postemergence",1
same,Morningglory plant response rating,morningglory; [7],2
same,Redroot pigweed plant response rating,pigweed; [1],5
same,Redroot pigweed plant response rating (0 to 10 scale),pigweed; [2],7
same,Redroot pigweed plant response rating,pigweed; [3],8
same,"Plant response rating, Redroot pigweed",pigweed; [4],10
same,Redroot pigweed plant response rating,pigweed; [5],0
same,Redroot pigweed plant response rating,pigweed; [6],0
same,"Plant response rating (0 to 10; 0 is no effect, 10 is complete control), Redroot pigweed","pigweed; Rate 250 g/ha, Postemergence",0
same,Redroot pigweed plant response rating,pigweed; [7],0
same,Rape plant response rating,rape; [1],0
same,Rape plant response rating (0 to 10 scale),rape; [2],0
same,Rape plant response rating,rape; [3],2
same,"Plant response rating, Rape",rape; [4],7
same,Rape plant response rating,rape; [5],0
same,Rape plant response rating,rape; [6],0
same,"Plant response rating (0 to 10; 0 is no effect, 10 is complete control), Rape","rape; Rate 250 g/ha, Postemergence",0
same,Rape plant response rating,rape; [7],2
same,Soybean plant response rating,soybean; [1],0
same,Soybean plant response rating (0 to 10 scale),soybean; [2],0
same,Soybean plant response rating,soybean; [3],0
same,"Plant response rating, Soybean",soybean; [4],0
same,Soybean plant response rating,soybean; [5],0
same,Soybean plant response rating,soybean; [6],0
same,"Plant response rating (0 to 10; 0 is no effect, 10 is complete control), Soybean","soybean; Rate 250 g/ha, Postemergence",0
same,Soybean plant response rating,soybean; [7],1
same,Sugarbeets plant response rating,sugar beet; [1],0
same,Sugarbeets plant response rating (0 to 10 scale),sugar beet; [2],0
same,Sugarbeets plant response rating,sugar beet; [3],2
same,"Plant response rating, Sugarbeets",sugar beet; [4],3
same,Sugarbeets plant response rating,sugar beet; [5],0
same,Sugarbeets plant response rating,sugar beet; [6],0
same,"Plant response rating (0 to 10; 0 is no effect, 10 is complete control), Sugarbeets","sugar beet; Rate 250 g/ha, Postemergence",0
same,Sugarbeets plant response rating,sugar beet; [7],0
same,Velvetleaf plant response rating,velvetleaf; [1],0
same,Velvetleaf plant response rating,velvetleaf; [3],0
same,"Plant response rating, Velvetleaf",velvetleaf; [4],3
same,Velvetleaf plant response rating,velvetleaf; [5],0
same,Velvetleaf plant response rating,velvetleaf; [6],0
same,"Plant response rating (0 to 10; 0 is no effect, 10 is complete control), Velvetleaf","velvetleaf; Rate 250 g/ha, Postemergence",0
same,Wheat plant response rating,wheat; [1],0
same,Wheat plant response rating,wheat; [3],0
same,"Plant response rating, Wheat",wheat; [4],2
same,Wheat plant response rating,wheat; [5],0
same,Wheat plant response rating,wheat; [6],0
same,"Plant response rating (0 to 10; 0 is no effect, 10 is complete control), Wheat","wheat; Rate 250 g/ha, Postemergence",0
same,Wild oats plant response rating,wild oat; [1],0
same,Wild oats plant response rating,wild oat; [3],3
same,"Plant response rating, Wild oats",wild oat; [4],8
same,Wild oats plant response rating,wild oat; [5],0
same,Wild oats plant response rating,wild oat; [6],0
same,"Plant response rating (0 to 10; 0 is no effect, 10 is complete control), Wild oats","wild oat; Rate 250 g/ha, Postemergence",0
same,Nutsedge plant response rating,purple nutsedge; [1],0
same,Nutsedge plant response rating,purple nutsedge; [3],0
same,"Plant response rating, Nutsedge",purple nutsedge; [4],0
same,Nutsedge plant response rating,purple nutsedge; [5],0
same,Nutsedge plant response rating,purple nutsedge; [6],0
same,"Plant response rating (0 to 10; 0 is no effect, 10 is complete control), Nutsedge","purple nutsedge; Rate 250 g/ha, Postemergence",0
same,Nutsedge plant response rating,purple nutsedge; [7],0
same,Rice plant response rating,rice; [8],0
same,Rice plant response rating,rice; [9],0
same,Rice plant response rating,rice; [10],0
same,"Plant response rating, Rice",rice; [11],0
same,Ducksalad plant response rating,duck salad; [8],0
same,Ducksalad plant response rating,duck salad; [9],0
same,Ducksalad plant response rating,duck salad; [10],0
same,"Plant response rating, Ducksalad",duck salad; [11],0
same,Barnyardgrass plant response rating,bamyardgrass; [8],0
same,Barnyardgrass plant response rating,bamyardgrass; [9],0
same,Barnyardgrass plant response rating,bamyardgrass; [10],0
same,"Plant response rating, Barnyardgrass",bamyardgrass; [11],0
